Test results reported in US9365583B2, “Substituted pyrazoles and uses thereof” (Genentech, Inc., priority 2013, dated 2016).

Each compound was assayed against T1, N-terminally GST-tagged DLK (catalytic domain amino acid 1-520) (Homo sapiens, UniProt Q12852) (assay: DLK TR-FRET inhibition assay). Settings: 5 nM GST-DLK, 40 nM HIS-MKK4 K131M substrate, 30 μM ATP, 60 minutes at ambient temperature.
T1 construct: N-terminally GST-tagged DLK (catalytic domain amino acid 1-520); purchased Carna Bioscience
T1 sequence (Q12852 1-520): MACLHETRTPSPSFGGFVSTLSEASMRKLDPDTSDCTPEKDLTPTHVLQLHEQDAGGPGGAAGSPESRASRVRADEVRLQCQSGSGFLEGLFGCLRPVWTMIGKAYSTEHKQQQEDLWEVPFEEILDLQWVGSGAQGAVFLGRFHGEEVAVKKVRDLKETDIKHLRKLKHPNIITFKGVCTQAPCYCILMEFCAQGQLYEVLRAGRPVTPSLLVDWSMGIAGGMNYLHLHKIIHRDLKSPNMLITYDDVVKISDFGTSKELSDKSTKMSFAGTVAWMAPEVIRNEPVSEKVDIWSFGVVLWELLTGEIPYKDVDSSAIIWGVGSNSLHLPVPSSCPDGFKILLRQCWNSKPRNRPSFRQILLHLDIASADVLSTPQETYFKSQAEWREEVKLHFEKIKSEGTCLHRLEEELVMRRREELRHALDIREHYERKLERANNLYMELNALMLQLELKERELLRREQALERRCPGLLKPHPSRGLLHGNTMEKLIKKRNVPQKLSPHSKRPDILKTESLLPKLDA
Assay type: biochemical
Method in brief: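 Phosphorylated MKK4 was quantified by TR-FRET (Eu-labelled anti-phospho-MKK4, D2 anti-HIS; 3 h, 665 and 615 nm emission) after EDTA quench. Reactions held 5 nM GST-tagged DLK catalytic domain (1-520), 40 nM HIS-MKK4 K131M substrate, 30 μM ATP and compound (3-fold series from 20 uM), 60 min, room temperature, pH 7.5.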

Row | SMILES | Ki [nM]
1 | CC(C)n1nc(-c2cnc(N)c(OC(F)(F)F)c2)cc1[C@H]1[C@@H]2C[C@@H](N3C[C@@H]4C[C@H]3CO4)C[C@@H]21 [compound 164, 5-(5-((1R,3s,5S,6S)-3-((1S,4S)-2-oxa-5-azabicyclo[2.2.1]heptan-5-yl)bicyclo[3.1.0]hexan-6-yl)-1-isopropyl-1H-pyrazol-3-yl)-3-(trifluoromethoxy)pyridin-2-amine] | 3.3
2 | Nc1ncc(-c2cc([C@H]3[C@@H]4C[C@@H](N5CCOCC5)C[C@@H]43)n(CC(F)F)n2)cc1OC(F)(F)F [compound 165, 5-(1-(2,2-difluoroethyl)-5-((1R,3s,5S,6r)-3-morpholinobicyclo [3.1.0]hexan-6-yl)-1H-pyrazol-3-yl)-3-(trifluoromethoxy) pyridin-2-amine] | 1.6
3 | COCC1(F)C[C@@H]2[C@H](C1)[C@H]2c1cc(-c2cnc(N)c(C(F)(F)F)c2)nn1C(C)C (stereo partly drawn) [compound 166, 5-(5-((1R,5S,6r)-3-fluoro-3-(methoxymethyl)bicyclo[3.1.0]hexan-6-yl)-1-isopropyl-1H-pyrazol-3-yl)-3-(trifluoromethyl)pyridin-2-amine] | 6.7
4 | CC(C)n1nc(-c2cnc(N)c(C(F)(F)F)c2)cc1[C@H]1[C@@H]2C[C@@H](N3C[C@@H]4C[C@H]3CO4)C[C@@H]21 [compound 167, 5-(5-((1R,3s,5S,6S)-3-((1S,4S)-2-oxa-5-azabicyclo[2.2.1]heptan-5-yl)bicyclo[3.1.0]hexan-6-yl)-1-isopropyl-1H-pyrazol-3-yl)-3-(trifluoromethyl)pyridin-2-amine] | 1.4
5 | CC(C)n1nc(-c2cnc(N)c(OC(F)F)c2)cc1[C@H]1[C@@H]2C[C@H](OCC(C)(C)O)C[C@@H]21 [compound 168, 1-(((1R,3r,5S,6r)-6-(3-(6-ammo-5-(difluoromethoxy)pyridin-3-yl)-1-isopropyl-1H-pyrazol-5-yl)bicyclo[3.1.0]hexan-3-yl)oxy)-2-methylpropan-2-ol] | 2.7
6 | CC(C)n1nc(-c2cnc(N)c(OC(F)F)c2)cc1[C@H]1[C@@H]2CC3(COC3)C[C@@H]21 [compound 170, 3-(difluoromethoxy)-5-(1-isopropyl-5-((1R,5S,6r)-spiro[bicyclo [3.1.0]hexane-3,3′-oxetan]-6-yl)-1H-pyrazol-3-yl)pyridin-2-amine] | 4.5
7 | CC(C)N1CCN([C@@H]2C[C@@H]3[C@H](C2)[C@H]3c2cc(-c3cnc(N)c(OC(F)F)c3)nn2C(C)C)CC1 [compound 176, 3-(difluoromethoxy)-5-(1-isopropyl-5-((1R,3s,5S,6r)-3-(4-isopropyl-piperazin-1-yl)bicyclo[3.1.0]hexan-6-yl)-1H-pyrazol-3-yl) pyridin-2-amine] | 1.8
8 | CC(C)N1CCN([C@H]2C[C@@H]3[C@H](C2)[C@H]3c2cc(-c3cnc(N)c(OC(F)F)c3)nn2C(C)C)CC1 [compound 177, 3-(difluoromethoxy)-5-(1-isopropyl-5-((1R,3r,5S,6r)-3-(4-isopropyl-piperazin-1-yl)bicyclo[3.1.0]hexan-6-yl)-1H-pyrazol-3-yl) pyridin-2-amine] | 1.1
9 | CC(C)n1nc(-c2cnc(N)c(C(F)(F)F)c2)cc1[C@H]1[C@@H]2C[C@H](N3CCN(C)C4(COC4)C3)C[C@@H]21 [compound 179, 5-(1-isopropyl-5-((1R,3r,5S,6r)-3-(5-methyl-2-oxa-5,8-diazaspiro [3.5]nonan-8-yl)bicyclo[3.1.0]hexan-6-yl)-1H-pyrazol-3-yl)-3-(trifluoromethyl)pyridin-2-amine] | 4.3
10 | CC(C)n1nc(-c2cnc(N)c(C(F)(F)F)c2)cc1[C@H]1[C@@H]2C[C@@H](N3CCN(C)C4(COC4)C3)C[C@@H]21 [compound 180, 5-(1-isopropyl-5-((1R,3s,5S,6r)-3-(5-methyl-2-oxa-5,8-diazaspiro [3.5]nonan-8-yl)bicyclo[3.1.0]hexan-6-yl)-1H-pyrazol-3-yl)-3-(trifluoromethyl)pyridin-2-amine] | 5.8
11 | CC(C)n1nc(-c2cnc(N)c(OC(F)F)c2)cc1[C@H]1[C@@H]2C[C@H](N3CCOCC(F)(F)C3)C[C@@H]21 [compound 181, 5-(5-((1R,3r,5S,6r)-3-(6,6-difluoro-1,4-oxazepan-4-yl)bicyclo [3.1.0]hexan-6-yl)-1-isopropyl-1H-pyrazol-3-yl)-3-(difluoromethoxy) pyridin-2-amine] | 2.4
12 | CC(=O)N(C)[C@H]1C[C@@H]2[C@H](C1)[C@H]2c1cc(-c2cnc(N)c(C(F)(F)F)c2)nn1C(C)C [compound 182, N-((1R,5S,6r)-6-(3-(6-amino-5-(trifluoromethyl)pyridin-3-yl)-1-isopropyl-1H-pyrazol-5-yl)bicyclo [3.1.0]hexan-3-yl)-N-methylacetamide] | 3
13 | CC(C)n1nc(-c2cnc(N)c(OC(F)F)c2)cc1[C@H]1[C@@H]2C[C@@H](N3CCOCC(F)(F)C3)C[C@@H]21 [compound 183, 5-(5-((1R,3s,5S,6r)-3-(6,6-difluoro-1,4-oxazepan-4-yl)bicyclo [3.1.0]hexan-6-yl)-1-isopropyl-1H-pyrazol-3-yl)-3-(difluoro-methoxy)pyridin-2-amine] | 4.5
14 | CO[C@@H]1CCN([C@H]2C[C@@H]3[C@H](C2)[C@H]3c2cc(-c3cnc(N)c(C(F)(F)F)c3)nn2C(C)C)C1 [compound 185, 5-(1-isopropyl-5-((1R,3r,5S,6R)-3-((R)-3-methoxypyrrolidin-1-yl)bicyclo[3.1.0]hexan-6-yl)-1H-pyrazol-3-yl)-3-(trifluoromethyl) pyridin-2-amine] | 1.6
15 | CO[C@@H]1CCN([C@H]2C[C@@H]3[C@H](C2)[C@H]3c2cc(-c3cnc(N)c(OC(F)F)c3)nn2C(C)C)C1 [compound 186, 3-(difluoromethoxy)-5-(1-isopropyl-5-((1R,3r,5S,6R)-3-((R)-3-methoxypyrrolidin-1-yl)bicyclo [3.1.0]hexan-6-yl)-1H-pyrazol-3-yl)pyridin-2-amine] | 1.6
16 | CO[C@H]1C[C@@H]2[C@H](C1)[C@H]2c1cc(-c2cnc(N)c(OC(F)F)c2)nn1C(C)C [compound 187, 3-(difluoromethoxy)-5-(1-isopropyl-5-((1R,3r,5S,6r)-3-methoxy-bicyclo[3.1.0]hexan-6-yl)-1H-pyrazol-3-yl)pyridin-2-amine] | 2.2
17 | CC(C)n1nc(-c2cnc(N)c(C(F)(F)F)c2)cc1[C@H]1[C@@H]2C[C@H](N(C)C)C[C@@H]21 [compound 188, 5-(5-((lR,3r,5S,6r)-3-(dimethylamino)bicyclo[3.1,0]hexan-6-yl)-1-isopropyl-1 H-pyrazol-3-yl)-3-(trifluoromethyl)pyridin-2-am inc] | 2.8
18 | CC(C)n1nc(-c2cnc(N)c(C(F)(F)F)c2)cc1[C@H]1[C@@H]2C[C@@H](N(C)C)C[C@@H]21 [compound 189, 5-(5-((1R,3s,5S,6r)-3-(dimethylamino)bicyclo[3.1.0]hexan-6-yl)-1-isopropyl-1H-pyrazol-3-yl)-3-(trifluoromethyl)pyridin-2-amine] | 2.9
19 | CO[C@@H]1CCN([C@@H]2C[C@@H]3[C@H](C2)[C@H]3c2cc(-c3cnc(N)c(C(F)(F)F)c3)nn2C(C)C)C1 [compound 192, 5-(1-isopropyl-5-((1R,3s,5S,6R)-3-((R)-3-methoxypyrrolidin-1-yl)bicyclo[3.1.0]hexan-6-yl)-1H-pyrazol-3-yl)-3-(trifluoromethyl) pyridin-2-amine] | 2.6
20 | CO[C@@H]1CCN([C@@H]2C[C@@H]3[C@H](C2)[C@H]3c2cc(-c3cnc(N)c(OC(F)(F)F)c3)nn2C(C)C)C1 [compound 193, 5-(1-isopropyl-5-((1R,3s,5S,6R)-3-((R)-3-methoxypyrrolidin-1-yl)bicyclo[3.1.0]hexan-6-yl)-1H-pyrazol-3-yl)-3-(trifluoromethoxy) pyridin-2-amine] | 1.4
21 | CO[C@@H]1CCN([C@@H]2C[C@@H]3[C@H](C2)[C@H]3c2cc(-c3cnc(N)c(OC(F)F)c3)nn2C(C)C)C1 [compound 194, 3-(difluoromethoxy)-5-(1-isopropyl-5-((1R,3s,5S,6R)-3-((R)-3-methoxypyrrolidin-1-yl)bicyclo [3.1.0]hcxan-6-yl)-1 H-pyrazol-3-yl)pyridin-2-amine] | 2
22 | CO[C@@H]1C[C@@H]2[C@H](C1)[C@H]2c1cc(-c2cnc(N)c(OC(F)F)c2)nn1C(C)C [compound 195, 3-(difluoromethoxy)-5-(1-isopropyl-5-((1R,3s,5S,6r)-3-methoxy-bicyclo[3.1.0]hexan-6-yl)-1H-pyrazol-3-yl)pyridin-2-amine] | 6.4
23 | CC(C)n1nc(-c2cnc(N)c(OC(F)F)c2)cc1[C@H]1[C@@H]2C[C@H](N3CCN(C)CC3)C[C@@H]21 [compound 198, 3-(difluoromethoxy)-5-(1-isopropyl-5-((1R,3r,5S,6r)-3-(4-methyl-piperazin-1-yl)bicyclo[3.1.0]hexan-6-yl)-1H-pyrazol-3-yl) pyridin-2-amine] | 2.1
